Measurements taken from US4221782A (priority 1978, dated 1980).
Like-named read-outs stand apart in the source and are kept apart here.

Experiments:
[1] = test system: stickleback; assay: Exploratory test with azidotrimethylsilicane; format: in vivo; conditions: relative to other azides
[2] = test system: sockeye salmon
Method: Fingerling sockeye salmon in artesian water were exposed to a concentration of 5 mg/l of potassium azide for 24 hours at a temperature of 15 degrees Celsius.
Ten sockeye (length range, 55-93 mm) were assigned to each of four aquaria (load, 2.7 g/l) and concentrations of chemicals were added as indicated in Table 8. The time of mortality was noted.

[3] = test system: threespine stickleback; design: species or system Gasterosteus aculeatus; conditions: in vivo
[4] = test system: stickleback
Excerpt: For water with different chemistry and for application of different concentrations of the azide the delay time of application of deactivator could vary.

[5] = test system: threespine stickleback and sockeye salmon; conditions: increases in temperature
Method: Delineation bioassays determined primarily the LC50 and LC100 of stickleback and the LC0 and LC50 of salmonids.
Stickleback (mean length, 44 mm) and sockeye (mean length, 74 mm) in artesian well water were treated with various concentrations of potassium azide in laboratory facilities for 96 hours at 5, 10 and 15 degrees Celsius to determine approximate selectivity and safety indices.

[6] = test system: stickleback; remark: listed apart in the source
Method: For field applications the concentration of NaN3 or N3 -- would vary with water quality--mainly with regard to dissolved solid and hydrogen ion concentrations. […] For the treatment of rivers and shorelines of lakes the concentrations of azide that would be used would be those that would kill stickleback in 12 to 24 hours.

[7] = test system: bridgelip sucker; assay: Toxicity to bridgelip sucker, 96-hour bioassays; format: in vivo, Catastomus columbianus
[8] = test system: rats; conditions: cited from earlier work
[9] = test system: cutthroat trout; assay: Toxicity to cutthroat trout, 96-hour bioassays; format: in vivo, Salmo clarki
[10] = test system: sockeye; conditions: in vivo
[11] = test system: torrent sculpin; assay: Toxicity to torrent sculpin, 96-hour bioassays; format: in vivo, Cottus rotheus
[12] = test system: speckled dace; assay: Toxicity to speckled dace, 96-hour bioassays; format: in vivo, Rhinichthys cataractae
[13] = Example 5: survival/recovery of sockeye after exposure to sodium azide, 20-day bioassays; format: in vivo, Oncorhynchus nerka; conditions: sockeye salmon, in vivo; exposed for 16 hours or less; end of 20-day bioassays
Excerpt: (§1) Stickleback subjected to the same test conditions experienced almost 100% mortality.

[14] = test system: sockeye; assay: as above; format: in vivo, Oncorhynchus nerka; conditions: exposed for 16 hours or less
Excerpt: as §1

[15] = test system: freshwater races of rainbow trout; assay: Toxicity to rainbow trout, 96-hour bioassays; format: in vivo, Salmo gairdneri
[16] = test system: rats; assay: Lowest published lethal oral dose in rats (1974 Toxic Substances List); format: in vivo, rat; conditions: water treated at 1 mg/l of azide
Method: It would be impossible for a bird or mammal to drink enough water when treated at 1 mg/l of azide for the azide to harm the animal. To drink a lethal dose, an animal would have to drink 46 times its weight in water. Nevertheless safety precautions should be taken when handling the chemical.

[17] = test system: redside shiner; assay: Toxicity to redside shiner, 96-hour bioassays; format: in vivo, Richardsonius balteatus
[18] = test system: chinook salmon; assay: Example 4: LC0 of chinook, artesian well water, 96-hour bioassays; format: in vivo, O. tschawytscha; conditions: for LC0 of chinook: artesian well water, 96-hour
Excerpt: The desirable fishes tested in bioassays included the sockeye salmon (Oncorhynchus nerka), chinook salmon, (O. tschawytscha) and the steelhead, a sea-run variety of rainbow trout (Salmo gairdneri).

[19] = up to 5.0 mg/l in artesian well water

C[Si](C)(C)N=[N+]=[N-] [azidotrimethylsilicane]
biological activity/potency and selectivity of the azide radical in organic compounds [1]: equally biologically active or potent and equally selective

calcium chloride
Survival time ([2]; 3.5 mg/l calcium chloride (1 equivalent weight) after 24 h at 5 mg/l potassium azide): 90 h | Survival time ([2]; 7.0 mg/l calcium chloride (2 equivalent weights) after 24 h at 5 mg/l potassium azide): 112 h | Survival time ([2]; 14.0 mg/l calcium chloride (4 equivalent weights) after 24 h at 5 mg/l potassium azide): 148 h | effect on mortality of sockeye exposed to 5 mg/l potassium azide for 24 hours ([2]; 1, 2, 4, and 8 equivalent weights): delayed the mortality | survival of all sockeye in the azide ([2]; 8 equivalents of calcium chloride): complete survival of all sockeye | Survival time ([2]; […] calcium chloride (8 equivalent weights) after 24 h at 5 mg/l potassium azide): Did not die | toxicity of azide in standing water and duration of its potency [3]: can be controlled | delay in application of calcium chloride necessary for maximizing the kill of stickleback ([4]; 5 mg/l potassium azide, artesian water): 2 h | death time for stickleback ([4]; calcium chloride and potassium azide added about simultaneously): about doubled

[Ca+2].[I-].[I-] [calcium iodide]
azide neutralizing effectiveness [3]: neutralized azide more effectively than calcium chloride | toxicity of azide in standing water and duration of its potency [3]: can be controlled

potassium azide
effect of temperature on toxicity [5]: marked increase in the toxicity

[Cl][Sn][Cl] [stannous chloride]
toxicity of azide in standing water and duration of its potency [3]: can be controlled

[N-]=[N+]=[N-] [sodium azide]
toxicity to fish in river water as opposed to artesian water ([6]; allowing for the 0.8 differential between sodium and potassium azide): about 5 times | LC100 of stickleback ([6]; river water, 96-hour bioassays, 15 degrees Celsius): 0.34 mg/L | toxicity ([7]; up to 1.5 mg/l in river water): not toxic | toxicity [7, 19]: not toxic | LDL0, oral (lowest published lethal dose) [8]: 46 mg for 2 kg of rat | toxicity ([9]; up to 1.5 mg/l in river water): not toxic | toxicity [9, 19]: not toxic | mean times of death at about equal equivalents [10]: about equal mean times of death | toxicity ([11]; up to 1.5 mg/l in river water): not toxic | toxicity [11, 19]: not toxic | toxicity ([12]; up to 1.5 mg/l in river water): not toxic | toxicity [12, 19]: not toxic | survival at 480 h [13]: 100% | recovery of sockeye from ill effects [14]: complete recovered from any ill effects | toxicity ([15]; up to 1.5 mg/l in river water): not toxic | toxicity [15, 19]: not toxic | amount of water to drink for a lethal dose [16]: 46 times its weight | toxicity ([17]; up to 1.5 mg/l in river water): not toxic | toxicity [17, 19]: not toxic | LC0 of chinook salmon compared with sockeye and steelhead ([18]; allowing for the 0.8 differential): substantially greater than that of sockeye and steelhead | LC0 of chinook ([18]; 5° C.): 10.0 mg/L | LC0 of chinook ([18]; 10° C.): 8.0 mg/L | LC0 of chinook ([18]; 15° C.): 8.0 mg/L
